Experimental data from ChEMBL document CHEMBL1201862, “PubChem BioAssay data set” (2004).
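Step 1: Grow cells in 96-well plates. Step 2: Expose to compound for 48 hours at 5 concentrations. Step 3: Interpolate endpoints linearly; if unreached, use highest concentration. The concentration for 50% growth inhibition is given as GI50.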 Calls of active or inactive are those of the source. Rule as the data show it: active = GI50 up to about 1.1 µM and inactive = higher.

Legend:
Assay in all cases: NCI anticancer screen, dose series, 48 h
M14 = tested on: M14
UACC-62 = tested on: UACC-62
NCI-H23 = tested on: NCI-H23
A549 = tested on: A549
HL-60 = tested on: HL-60
MDA-MB-435 = tested on: MDA-MB-435
HCT-116 = tested on: HCT-116
MDA-N = tested on: MDA-N
RPMI-8226 = tested on: RPMI-8226
HOP-62 = tested on: HOP-62
SF-539 = tested on: SF-539
BT-549 = tested on: BT-549
NCI/ADR-RES = tested on: NCI/ADR-RES
SK-MEL-2 = tested on: SK-MEL-2
EKVX = tested on: EKVX
SNB-19 = tested on: SNB-19
OVCAR-4 = tested on: OVCAR-4
OVCAR-5 = tested on: OVCAR-5
UACC-257 = tested on: UACC-257
U-251 = tested on: U-251
NCI-H460 = tested on: NCI-H460
HCC 2998 = tested on: HCC 2998
DU-145 = tested on: DU-145
IGROV-1 = tested on: IGROV-1
ACHN = tested on: ACHN
MOLT-4 = tested on: MOLT-4
TK-10 = tested on: TK-10
COLO 205 = tested on: COLO 205
HCT-15 = tested on: HCT-15
CCRF-CEM = tested on: CCRF-CEM
NCI-H522 = tested on: NCI-H522
SW-620 = tested on: SW-620
MDA-MB-231 = tested on: MDA-MB-231
RXF 393 = tested on: RXF 393
OVCAR-8 = tested on: OVCAR-8
K562 = tested on: K562
NCI-H226 = tested on: NCI-H226
SF-295 = tested on: SF-295
HT-29 = tested on: HT-29
SR = tested on: SR
A498 = tested on: A498
OVCAR-3 = tested on: OVCAR-3
SN12C = tested on: SN12C
CAKI-1 = tested on: CAKI-1
MCF7 = tested on: MCF7
SK-OV-3 = tested on: SK-OV-3
SF-268 = tested on: SF-268
KM12 = tested on: KM12
HOP-92 = tested on: HOP-92
UO-31 = tested on: UO-31
Malme-3M = tested on: Malme-3M
786-0 = tested on: 786-0
PC-3 = tested on: PC-3
SK-MEL-5 = tested on: SK-MEL-5
Hs-578T = tested on: Hs-578T

Which results are given for `CC(C)(CN1CCCCC1)C(=O)CC(SCCS(=O)(=O)O)c1ccc(Cl)c(Cl)c1` (stereo not given)?
GI50 (M14): 1.92 µM (inactive); GI50 (UACC-62): 3.13 µM (inactive); GI50 (NCI-H23): 3.72 µM (inactive); GI50 (A549): 5.98 µM (inactive); GI50 (HL-60): 3.46 µM (inactive); GI50 (MDA-MB-435): 2.21 µM (inactive); GI50 (HCT-116): 2.59 µM (inactive); GI50 (MDA-N): 3.09 µM (inactive); GI50 (RPMI-8226): 4.01 µM (inactive); GI50 (HOP-62): 6.47 µM (inactive); GI50 (SF-539): 2.65 µM (inactive); GI50 (BT-549): 2.9 µM (inactive); GI50 (NCI/ADR-RES): 3.21 µM (inactive); GI50 (SK-MEL-2): 24 µM (inactive); GI50 (EKVX): 6.59 µM (inactive); GI50 (SNB-19): 10.4 µM (inactive); GI50 (OVCAR-4): 3.52 µM (inactive); GI50 (OVCAR-5): 3.78 µM (inactive); GI50 (UACC-257): 5.94 µM (inactive); GI50 (U-251): 7.13 µM (inactive); GI50 (NCI-H460): 2.22 µM (inactive); GI50 (HCC 2998): 13 µM (inactive); GI50 (DU-145): 11.4 µM (inactive); GI50 (IGROV-1): 4.4 µM (inactive); GI50 (ACHN): 3.29 µM (inactive); GI50 (MOLT-4): 3.61 µM (inactive); GI50 (TK-10): 5.46 µM (inactive); GI50 (COLO 205): 2.58 µM (inactive); GI50 (HCT-15): 2.07 µM; GI50 (CCRF-CEM): 2.07 µM (inactive); GI50 (NCI-H522): 3.19 µM (inactive); GI50 (SW-620): 2.22 µM (inactive); GI50 (MDA-MB-231): 2.08 µM (inactive); GI50 (RXF 393): 3.16 µM (inactive); GI50 (OVCAR-8): 2.75 µM (inactive); GI50 (K562): 2.42 µM (inactive); GI50 (NCI-H226): 20 µM (inactive); GI50 (SF-295): 3.25 µM (inactive); GI50 (HT-29): 3.08 µM (inactive); GI50 (SR): 3.1 µM (inactive); GI50 (A498): 3.56 µM (inactive); GI50 (OVCAR-3): 2.37 µM (inactive); GI50 (SN12C): 3.46 µM (inactive); GI50 (CAKI-1): 2.97 µM (inactive); GI50 (MCF7): 3.46 µM (inactive); GI50 (SK-OV-3): 29.7 µM (inactive); GI50 (SF-268): 3.72 µM (inactive); GI50 (KM12): 5.71 µM (inactive); GI50 (HOP-92): 1.76 µM (inactive); GI50 (UO-31): 4.91 µM (inactive); GI50 (Malme-3M): 4.1 µM (inactive); GI50 (786-0): 1.86 µM (inactive); GI50 (PC-3): 4.94 µM (inactive); GI50 (SK-MEL-5): 8.73 µM (inactive); GI50 (Hs-578T): 2.8 µM (inactive)
